Source: ChEMBL document CHEMBL5584323, “Peptide-Mediated Small Molecule Lysosome-Targeting Chimeras for Targeted Degradation of Membrane and Intracellular Proteins” (J Med Chem, 2024)
Blank lines part the entries; values can stand above or below the compound they belong to. The source made the active and inactive calls. No cut-off for these calls is given here. Starred links: 1 amine or outer side, 2 acyl side, 3 side chain; linkers in the order of their positions; H or OH if unused. Non-standard residues stand in square brackets, D forms with d. Residues, ends and D or L forms follow the SMILES beside them. *: point of attachment. X5 = Nc1ncnc2c1c(-c1ccc(Oc3ccccc3)cc1)nn2[C@@H]1CCCN(C(=O)/C=C/CN2CCN(CCOCCOCCC(=O)*)CC2)C1; X4 = COc1nc(OCc2cccc(-c3ccccc3)c2C)ccc1CNCCNC(=O)CCCc1cn(CC(=O)*)nn1; X1 = Cc1ccc(-n2nc3c(=O)n(CCCC(=O)*)nc(C)c3c2C)cc1; X2 = O=S(=O)(c1ccc(NC(=S)NCc2cccnc2)cc1)*; X3 = O=C(CCCCCCCN1CCN([*:1])CC1)[*:2]; Aoc = NCCCCCCCC(=O)O

Key:
MIA PaCa-2 [1] = assay: Antiproliferative activity against human MIA PaCa-2 cells incubated for 72 hrs by CKK8 assay; format: functional, cell-based; details: MIA PaCa-2, 72 h
[2] = target: T1, Programmed cell death 1 ligand 1 (Homo sapiens, UniProt Q9NZQ7); assay: Peptide-mediated small molecule lysosome-targeting chimeric activity based PD-L1 degradation in human A549 cells at 0.1 to 5 uM incubated for 48 hrs by Western blot analysis relative to control; format: cell-based; details: dose 0.1-5 µM
T1 sequence (Q9NZQ7 whole entry): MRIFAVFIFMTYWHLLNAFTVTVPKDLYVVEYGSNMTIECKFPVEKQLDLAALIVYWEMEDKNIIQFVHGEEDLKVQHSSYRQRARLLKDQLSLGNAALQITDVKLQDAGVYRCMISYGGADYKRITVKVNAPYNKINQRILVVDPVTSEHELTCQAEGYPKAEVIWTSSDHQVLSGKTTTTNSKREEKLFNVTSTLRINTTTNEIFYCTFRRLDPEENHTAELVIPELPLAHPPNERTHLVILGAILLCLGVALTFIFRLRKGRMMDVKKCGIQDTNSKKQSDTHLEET

[3] = target: T1, Programmed cell death 1 ligand 1; assay: Peptide-mediated small molecule lysosome-targeting chimeric activity based PD-L1 degradation in human A549 cells incubated for 48 hrs by Western blot analysis; format: cell-based
[4] = target: T1, Programmed cell death 1 ligand 1; assay: Peptide-mediated small molecule lysosome-targeting chimeric activity based PD-L1 degradation in Baf-A1-treated human A549 cells upto 5 uM incubated for 48 hrs by Western blot analysis; format: cell-based
[5] = target: Tyrosine-protein kinase BTK (Homo sapiens) (UniProt Q06187); assay: Peptide-mediated small molecule lysosome-targeting chimeric activity based BTK degradation in human K562 cells at 10 uM incubated for 48 hrs by Western blot analysis relative to control; format: cell-based
Sequence of Tyrosine-protein kinase BTK (Homo sapiens) (Q06187 whole entry): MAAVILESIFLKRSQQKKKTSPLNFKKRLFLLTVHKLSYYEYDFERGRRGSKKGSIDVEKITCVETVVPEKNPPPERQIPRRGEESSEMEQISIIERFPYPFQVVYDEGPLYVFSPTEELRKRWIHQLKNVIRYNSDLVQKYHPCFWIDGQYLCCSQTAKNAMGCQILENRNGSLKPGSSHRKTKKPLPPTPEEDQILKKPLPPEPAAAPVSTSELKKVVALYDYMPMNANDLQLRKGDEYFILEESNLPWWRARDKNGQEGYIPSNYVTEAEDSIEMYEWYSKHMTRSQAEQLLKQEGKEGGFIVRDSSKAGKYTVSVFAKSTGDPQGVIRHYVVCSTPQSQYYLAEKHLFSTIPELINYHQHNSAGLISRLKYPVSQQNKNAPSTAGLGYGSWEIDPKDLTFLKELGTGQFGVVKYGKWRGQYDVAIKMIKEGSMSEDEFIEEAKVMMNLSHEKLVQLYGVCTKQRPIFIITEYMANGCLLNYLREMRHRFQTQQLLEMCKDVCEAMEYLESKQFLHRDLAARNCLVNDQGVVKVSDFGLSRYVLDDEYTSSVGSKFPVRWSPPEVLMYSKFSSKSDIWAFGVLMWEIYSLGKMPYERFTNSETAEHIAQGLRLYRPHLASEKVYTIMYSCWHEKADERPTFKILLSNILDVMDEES

[6] = target: T2, Nicotinamide phosphoribosyltransferase (Homo sapiens, UniProt P43490); assay: Peptide-mediated small molecule lysosome-targeting chimeric activity based NAMPT degradation in human A2780 cells incubated for 48 hrs by Western blot analysis; format: cell-based
[7] = target: T2, Nicotinamide phosphoribosyltransferase; assay: Peptide-mediated small molecule lysosome-targeting chimeric activity based NAMPT degradation in human A2780 cells at 1 to 40 uM incubated for 48 hrs by Western blot analysis relative to control; format: cell-based; details: dose 1-40 µM
Target sequence in this assay (P43490 whole entry, looked up): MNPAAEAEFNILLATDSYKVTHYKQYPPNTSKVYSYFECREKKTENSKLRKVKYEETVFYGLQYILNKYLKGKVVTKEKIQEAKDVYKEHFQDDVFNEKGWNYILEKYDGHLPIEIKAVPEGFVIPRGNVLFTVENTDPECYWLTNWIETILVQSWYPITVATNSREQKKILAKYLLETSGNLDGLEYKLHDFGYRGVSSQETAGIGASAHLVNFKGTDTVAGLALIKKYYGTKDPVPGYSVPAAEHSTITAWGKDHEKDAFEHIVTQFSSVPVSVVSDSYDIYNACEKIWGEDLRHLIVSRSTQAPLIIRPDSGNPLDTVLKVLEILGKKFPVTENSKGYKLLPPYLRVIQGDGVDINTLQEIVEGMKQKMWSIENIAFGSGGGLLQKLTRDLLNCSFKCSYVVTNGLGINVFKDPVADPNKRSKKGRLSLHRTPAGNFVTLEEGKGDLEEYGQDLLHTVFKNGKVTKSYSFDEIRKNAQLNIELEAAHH

[8] = target: T2, Nicotinamide phosphoribosyltransferase; assay: Peptide-mediated small molecule lysosome-targeting chimeric activity based NAMPT degradation in human MOLT-4 cells incubated for 48 hrs by Western blot analysis; format: cell-based
[9] = target: T2, Nicotinamide phosphoribosyltransferase; assay: Peptide-mediated small molecule lysosome-targeting chimeric activity based NAMPT degradation in human MOLT-4 cells at 1 to 40 uM incubated for 48 hrs by Western blot analysis relative to control; format: cell-based; details: dose 1-40 µM
Target sequence in this assay (P43490 whole entry, looked up): as above

[10] = target: T3, Retinal rod rhodopsin-sensitive cGMP 3',5'-cyclic phosphodiesterase subunit delta (Homo sapiens, UniProt O43924); assay: Peptide-mediated small molecule lysosome-targeting chimeric activity based PDE-delta degradation in human MIA PaCa-2 cells at 0.1 uM incubated for 48 hrs by Western blot analysis; format: cell-based
T3 sequence (O43924 whole entry): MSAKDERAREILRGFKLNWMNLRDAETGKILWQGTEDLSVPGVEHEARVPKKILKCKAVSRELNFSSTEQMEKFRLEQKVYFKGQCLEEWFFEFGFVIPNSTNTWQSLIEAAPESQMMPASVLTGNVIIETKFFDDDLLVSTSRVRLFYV

[11] = target: T3, Retinal rod rhodopsin-sensitive cGMP 3',5'-cyclic phosphodiesterase subunit delta; assay: Peptide-mediated small molecule lysosome-targeting chimeric activity based PDE-delta degradation in human MIA PaCa-2 cells at 5 uM incubated for 48 hrs by Western blot analysis relative to control; format: cell-based
[12] = target: T3, Retinal rod rhodopsin-sensitive cGMP 3',5'-cyclic phosphodiesterase subunit delta; assay: Peptide-mediated small molecule lysosome-targeting chimeric activity based PDE-delta degradation in human MIA PaCa-2 cells incubated for 48 hrs by Western blot analysis; format: cell-based
MIA PaCa-2 [13] = assay: Induction of apoptosis in human MIA PaCa-2 cells assessed as viable cells at 5 uM incubated for 48 hrs by Annexin V-FITC/PI staining based flow cytometry (reference value: 92.1 %); format: functional; details: read-out: Activity
MIA PaCa-2 [14] = assay: Induction of apoptosis in human MIA PaCa-2 cells assessed as early apoptotic cells at 5 uM incubated for 48 hrs by Annexin V-FITC/PI staining based flow cytometry (reference value: 4.45 %); format: functional
MIA PaCa-2 [15] = assay: Induction of apoptosis in human MIA PaCa-2 cells assessed as late apoptotic cells at 5 uM incubated for 48 hrs by Annexin V-FITC/PI staining based flow cytometry (reference value: 2.90 %); format: functional
MIA PaCa-2 [16] = assay: Induction of apoptosis in human MIA PaCa-2 cells assessed as necrotic cells at 5 uM incubated for 48 hrs by Annexin V-FITC/PI staining based flow cytometry (reference value: 0.55 %); format: functional
MIA PaCa-2 [17] = assay: Induction of apoptosis in human MIA PaCa-2 cells assessed as viable cells at 10 uM incubated for 48 hrs by Annexin V-FITC/PI staining based flow cytometry (reference value: 92.1 %); format: functional; details: read-out: Activity
MIA PaCa-2 [18] = assay: Induction of apoptosis in human MIA PaCa-2 cells assessed as early apoptotic cells at 10 uM incubated for 48 hrs by Annexin V-FITC/PI staining based flow cytometry (reference value: 4.45 %); format: functional
MIA PaCa-2 [19] = assay: Induction of apoptosis in human MIA PaCa-2 cells assessed as late apoptotic cells at 10 uM incubated for 48 hrs by Annexin V-FITC/PI staining based flow cytometry (reference value: 2.90 %); format: functional
MIA PaCa-2 [20] = assay: Induction of apoptosis in human MIA PaCa-2 cells assessed as necrotic cells at 10 uM incubated for 48 hrs by Annexin V-FITC/PI staining based flow cytometry (reference value: 0.55 %); format: functional
MIA PaCa-2 [21] = assay: Induction of apoptosis in human MIA PaCa-2 cells assessed as viable cells at 20 uM incubated for 48 hrs by Annexin V-FITC/PI staining based flow cytometry (reference value: 92.1 %); format: functional; details: read-out: Activity
MIA PaCa-2 [22] = assay: Induction of apoptosis in human MIA PaCa-2 cells assessed as early apoptotic cells at 20 uM incubated for 48 hrs by Annexin V-FITC/PI staining based flow cytometry (reference value: 4.45 %); format: functional
MIA PaCa-2 [23] = assay: Induction of apoptosis in human MIA PaCa-2 cells assessed as late apoptotic cells at 20 uM incubated for 48 hrs by Annexin V-FITC/PI staining based flow cytometry (reference value: 2.90 %); format: functional
MIA PaCa-2 [24] = assay: Induction of apoptosis in human MIA PaCa-2 cells assessed as necrotic cells at 20 uM incubated for 48 hrs by Annexin V-FITC/PI staining based flow cytometry (reference value: 0.55 %); format: functional
[25] = Stability of compound in PBS buffer incubated for 48 hrs by HPLC analysis; format: physicochemical
[26] = Metabolic stability in rat liver microsomes assessed as half life; format: ADME, Microsome
[27] = target: T3, Retinal rod rhodopsin-sensitive cGMP 3',5'-cyclic phosphodiesterase subunit delta; assay: Peptide-mediated small molecule lysosome-targeting chimeric activity based PDE-delta degradation in Baf-A1-treated human MIA PaCa-2 cells at 0.5 to 1 uM incubated for 48 hrs by Western blot analysis; format: cell-based; details: dose 0.5-1 µM
[28] = target: T3, Retinal rod rhodopsin-sensitive cGMP 3',5'-cyclic phosphodiesterase subunit delta; assay: Peptide-mediated small molecule lysosome-targeting chimeric activity based PDE-delta degradation in human MIA PaCa-2 cells assessed as increase in lysosome-related organelles at 1 uM incubated for 48 hrs by TEM analysis; format: cell-based
[29] = target: T3, Retinal rod rhodopsin-sensitive cGMP 3',5'-cyclic phosphodiesterase subunit delta; assay: Peptide-mediated small molecule lysosome-targeting chimeric activity based PDE-delta degradation in human MIA PaCa-2 cells assessed as reduction in Erk phosphorylation at Thr202/Tyr204 at 0.1 to 5 uM incubated for 48 hrs by Western blot analysis; format: cell-based; details: dose 0.1-5 µM
MIA PaCa-2 [30] = assay: Effect on total Erk in human MIA PaCa-2 cells at 0.1 to 5 uM incubated for 48 hrs by Western blot analysis; format: functional, cell-based; details: dose 0.1-5 µM
[31] = target: T3, Retinal rod rhodopsin-sensitive cGMP 3',5'-cyclic phosphodiesterase subunit delta; assay: Peptide-mediated small molecule lysosome-targeting chimeric activity based PDE-delta degradation in human MIA PaCa-2 cells assessed as reduction in Akt phosphorylation at S473 at 2 uM incubated for 48 hrs by Western blot analysis; format: cell-based
MIA PaCa-2 [32] = assay: Effect on total Akt in human MIA PaCa-2 cells at 0.1 to 5 uM incubated for 48 hrs by Western blot analysis; format: functional, cell-based; details: dose 0.1-5 µM

IC50 (MIA PaCa-2 [1]): 9300 nM
SMILES: Cc1ccc(-n2nc3c(=O)n(CCCC(=O)NCCCCCNc4cccc5c4C(=O)N(C4CCC(=O)NC4=O)C5=O)nc(C)c3c2C)cc1 (stereo unspecified)

SMILES: COc1nc(OCc2cccc(-c3ccccc3)c2C)ccc1CNCCNC(=O)CCCc1cn(CC(=O)NCC(=O)NCC(=O)N[C@@H](CCCNC(=N)N)C(=O)N[C@@H](CCCNC(=N)N)C(=O)N[C@@H](CCCNC(=N)N)C(=O)N[C@@H](CCCNC(=N)N)C(=O)N[C@@H](CCCNC(=N)N)C(=O)N[C@@H](CCCNC(=N)N)C(=O)N[C@@H](CCCNC(=N)N)C(=O)N[C@@H](CCCNC(=N)N)C(=O)N[C@@H](CCCNC(=N)N)C(=O)N[C@@H](CC(N)=O)C(=O)N2CCC[C@H]2C(=O)NCC(=O)N[C@@H](Cc2ccc(O)cc2)C(N)=O)nn1 (X4-GGRRRRRRRRRNPGY-NH2)
Emax [2]: 92%
DC50 [3]: 200 nM
Activity [4]: inactive

Emax [5]: 63%
SMILES: N=C(N)NCCC[C@H](NC(=O)CNC(=O)CNC(=O)CNC(=O)CCOCCOCCN1CCN(C/C=C/C(=O)N2CCC[C@@H](n3nc(-c4ccc(Oc5ccccc5)cc4)c4c(N)ncnc43)C2)CC1)C(=O)N[C@@H](CCCNC(=N)N)C(=O)N[C@@H](CCCNC(=N)N)C(=O)N[C@@H](CCCNC(=N)N)C(=O)N[C@@H](CCCNC(=N)N)C(=O)N[C@@H](CCCNC(=N)N)C(=O)N[C@@H](CCCNC(=N)N)C(=O)N[C@@H](CCCNC(=N)N)C(=O)N[C@@H](CCCNC(=N)N)C(=O)N[C@@H](CC(N)=O)C(=O)N1CCC[C@H]1C(=O)NCC(=O)N[C@@H](Cc1ccc(O)cc1)C(N)=O (X5-GGGRRRRRRRRRNPGY-NH2)

DC50 [6]: 890 nM
Activity ([6]; dose 1-40 µM): Dose-Dependent Effect
Emax [7]: 93%
DC50 [8]: 7000 nM
Activity ([8]; dose 1-40 µM): Dose-Dependent Effect
Emax [9]: 90%
SMILES: N=C(N)NCCC[C@H](NC(=O)CNC(=O)CNC(=O)CNC(=O)CCCCCCCN1CCN(S(=O)(=O)c2ccc(NC(=S)NCc3cccnc3)cc2)CC1)C(=O)N[C@@H](CCCNC(=N)N)C(=O)N[C@@H](CCCNC(=N)N)C(=O)N[C@@H](CCCNC(=N)N)C(=O)N[C@@H](CCCNC(=N)N)C(=O)N[C@@H](CCCNC(=N)N)C(=O)N[C@@H](CCCNC(=N)N)C(=O)N[C@@H](CCCNC(=N)N)C(=O)N[C@@H](CCCNC(=N)N)C(=O)N[C@@H](CC(N)=O)C(=O)N1CCC[C@H]1C(=O)NCC(=O)N[C@@H](Cc1ccc(O)cc1)C(N)=O (X2-[X3]GGGRRRRRRRRRNPGY-NH2)

Activity [10]: Active
Emax [11]: 89%
DC50 [12]: 230 nM
Activity ([12]; dose 0.1-5 µM): Dose-Dependent Effect
IC50 (MIA PaCa-2 [1]): 3600 nM
Stability [25]: Stable
half-life [26]: 33.5 min
Activity [27]: inactive
Activity [28]: Active
Activity [29]: Active
Activity [31]: Active
SMILES: Cc1ccc(-n2nc3c(=O)n(CCCC(=O)NCCCCCCCC(=O)NCC(=O)NCC(=O)NCC(=O)N[C@@H](CCCNC(=N)N)C(=O)N[C@@H](CCCNC(=N)N)C(=O)N[C@@H](CCCNC(=N)N)C(=O)N[C@@H](CCCNC(=N)N)C(=O)N[C@@H](CCCNC(=N)N)C(=O)N[C@@H](CCCNC(=N)N)C(=O)N[C@@H](CCCNC(=N)N)C(=O)N[C@@H](CCCNC(=N)N)C(=O)N[C@@H](CCCNC(=N)N)C(=O)N[C@@H](CC(N)=O)C(=O)N4CCC[C@H]4C(=O)NCC(=O)N[C@@H](Cc4ccc(O)cc4)C(N)=O)nc(C)c3c2C)cc1 ({X1-Aoc}-GGGRRRRRRRRRNPGY-NH2)
viability at 5 µM (MIA PaCa-2 [13]): 88.7%
Activity (MIA PaCa-2 [14]): 6.85%
Activity (MIA PaCa-2 [15]): 3.48%
Activity (MIA PaCa-2 [16]): 0.95%
viability at 10 µM (MIA PaCa-2 [17]): 73.3%
Activity (MIA PaCa-2 [18]): 10.7%
Activity (MIA PaCa-2 [19]): 13.3%
Activity (MIA PaCa-2 [20]): 2.05%
viability at 20 µM (MIA PaCa-2 [21]): 59.7%
Activity (MIA PaCa-2 [22]): 16.8%
Activity (MIA PaCa-2 [23]): 19.7%
Activity (MIA PaCa-2 [24]): 3.9%
Activity (MIA PaCa-2 [30]): inactive
Activity (MIA PaCa-2 [32]): inactive
